17 compounds from US20190327974A1, “SYNERGISTS FOR IMPROVED PESTICIDES” (priority 2017, published 2019) can be followed below.

Assay [1] concerns the target T1, wild-type LcαE7 (αE7 carboxylesterase) (Lucilia cuprina, UniProt Q25252).
T1 sequence (Q25252 1-570): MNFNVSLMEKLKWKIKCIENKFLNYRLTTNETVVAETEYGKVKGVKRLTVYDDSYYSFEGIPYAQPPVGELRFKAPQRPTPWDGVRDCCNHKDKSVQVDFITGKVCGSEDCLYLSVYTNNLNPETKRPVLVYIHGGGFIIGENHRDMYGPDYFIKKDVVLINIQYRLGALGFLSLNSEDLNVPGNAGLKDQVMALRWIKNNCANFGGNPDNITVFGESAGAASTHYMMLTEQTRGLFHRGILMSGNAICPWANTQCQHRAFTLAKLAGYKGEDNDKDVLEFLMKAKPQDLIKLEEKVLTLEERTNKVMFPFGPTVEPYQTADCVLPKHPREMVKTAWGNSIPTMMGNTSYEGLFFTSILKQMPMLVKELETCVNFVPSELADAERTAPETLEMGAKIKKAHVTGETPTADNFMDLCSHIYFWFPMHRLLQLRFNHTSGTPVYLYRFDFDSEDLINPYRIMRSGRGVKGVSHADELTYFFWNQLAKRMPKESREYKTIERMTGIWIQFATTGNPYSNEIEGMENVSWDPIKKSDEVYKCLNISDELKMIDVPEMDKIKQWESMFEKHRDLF
The assay is described as follows: Inhibition of wildtype αE7 (competition assay, hydrolysis of 4-nitrophenol butyrate), dose-response curves of FIG. 7. It counts as biochemical. Particulars: 95% confidence interval in brackets; recombinant His6-tagged enzyme from E. coli, 0.5 nM; 4-nitrophenol butyrate 15 μM (= KM); room temperature, pH 7.5, 405 nm; three technical replicates. The procedure: FIG. 7 presents dose-response curves for the inhibition of wildtype αE7. Inhibition of the hydrolysis of […] was determined for phenylboronic acid (PBA) and compounds 1-5 and 3.1-3.12. Three (technical) replicate measurements of enzyme activity were performed for each concentration of boronic acid. The concentration of boronic acid required to inhibit 50% of activity (IC50) was determined by fitting a sigmoidal sigmoidal dose-response curve to plots of percentage inhibition. The curve was constrained to 0 (bottom) and 100% (top) inhibition with a variable Hill slope. […]
Wild-type LcαE7 was heterologously expressed in Escherichia coli and purified using metal ion affinity and size exclusion chromatography. The potency of the boronic acids was determined by enzymatic assays of recombinant LcαE7 with the model carboxylester substrate 4-nitrophenol butyrate.
His6-tagged proteins were expressed in BL21(DE3) E. coli (Invitrogen) at 26° C. for 18 hours. Cells were collected by centrifugation, resuspended in lysis buffer (300 mM NaCl, 10 mM imidazole, 50 mM HEPES pH 7.5) and lysed by sonication. Cell debris was pelleted by centrifugation and the soluble fraction was loaded onto a HisTrap-HP Ni-Sepharose column (GE Healthcare). Bound protein was eluted with lysis buffer supplemented with 300 mM imidazole. Fractions containing the eluted protein were concentrated with a 30 kDa molecular mass cutoff centrifuge concentrator (Amicon) and loaded onto a HiLoad 26/60 Superdex-200 size-exclusion column (GE Healthcare) pre-equilibrated with 150 mM NaCl, 20 mM HEPES pH 7.5. Eluted fractions containing the monomeric protein were pooled for enzyme inhibition assays or crystallization. Protein concentration was determined by measuring the absorbance at 280 nm with an extinction coefficient calculated using the Protparam online server (Gasteiger, E. et al. Protein identification and analysis tools on the ExPASy server. Proteomics Protoc. Handb. 571-607 (2005). doi:10.1385/1-59259-890-0:571).
Inhibition of wild-type αE7 and the Gly137Asp αE7 variant was determined by a competition assay between the native-substrate analogue 4-nitrophenol butyrate (Sigma) and the boronic acid compounds. Initially, the Michalis constant (KM) with 4-nitrophenol butyrate was measured for both enzymes to determine an appropriate concentration of substrate for use in the competition assays. Formation of the 4-nitrophenolate product of hydrolysis was monitored at 405 nm in the presence of enzyme and eight different concentrations of substrate. 4-nitrophenol butyrate was prepared in methanol to 100 mM and serially diluted 1-in-2 to achieve concentrations from 100 mM to 0.8 mM. Enzyme stocks were prepared in 4 mg/ml bovine serum albumin (Sigma) to maintain enzyme stability. Reactions were prepared by pipetting 178 μl assay buffer (100 mM NaCl, 20 mM HEPES pH 7.5) and 2 μl substrate (final concentrations of 1000 to 8 μM) into 300 μl wells of a 96-well plate. The reaction was initiated by the addition of 20 μl enzyme (final concentration 2.5 nM for wildtype αE7 and 4 nM for Gly137Asp αE7). Product formation was monitored for four minutes at room temperature using an Epoch microplate spectrophotometer (BioTek) and the initial rates of ester hydrolysis were determined by linear regression using GraphPad Prism. The Michalis constant was determined by fitting the initial rates to the Michalis-Menton equation (FIG. 10).
Enzyme inhibition with the boronic acid compounds was determined by assaying the initial rate of 4-nitrophenol butyrate hydrolysis in the presence of either neat DMSO or the boronic acid compounds in DMSO. Compounds were prepared by serially diluting 1-in-3 an initial 10 mM stock to achieve concentrations from 10 mM to 2 nM. Reactions were prepared by pipetting 178 μl assay buffer supplemented with substrate to a final concentration equal to the KM of the enzyme (15 μM for wildtype αE7 and 250 μM for Gly137Asp αE7) into wells of a 96-well plate. […]

Assay [2] has as its system Lucilia cuprina larvae, laboratory drug-susceptible strain LS. Description: Lucilia cuprina larval bioassay (pupation rate), laboratory strain. To be noted: for synergism with diazinon (in words): susceptible strain. Type of assay: in vivo. As for the experimental part:
Inhibitor efficacy was determined by treating larvae with diazinon over a range of concentrations, in the presence or absence of the compounds at constant concentrations, and comparing pupation rates.
Two strains of L. cuprina were used: 1) a laboratory reference drug-susceptible strain, LS, derived from collections in the Australian Capital Territory over 40 years ago, with no history of exposure to insecticides; and 2) a field-collected strain, Tara, resistant to diazinon and diflubenzuron (Levot, G. W. & Sales, N. New high level resistance to diflubenzuron detected in the Australian sheep blowfly, Lucilia cuprina (Wiedemann) (Diptera: Calliphoridae). Gen. Appl. Entomol. 31, 43-46 (2002)). The LcαE7 gene was sequenced in each of the strains. Briefly, genomic DNA was prepared from 20 adult female flies from each strain using the DNeasy Blood and Tissue kit (Qiagen). PCR was performed with primers specific to the LcαE7 gene, and the product was cloned into a pGEM-T EASY vector (Promega). Eight clones of the susceptible strain and 10 clones of the resistant strain were sequenced using M13 forward and reverse primers.
Each experiment utilized 50 larvae at each diazinon/malathion concentration. Experiments were replicated three times for diazinon, and twice for malathion. The insecticidal effects were defined by measuring the pupation rate. […] Compounds were also without diazinon or malathion at 1 mg per assay.

By IC50 is commonly meant the midpoint of a concentration-inhibition curve. For the compound `Cc1ccc(B(O)O)cc1Br` [Compound 1], the IC50 in assay [1] was 25 nM. Turning to `Cc1ccc(B(O)O)cc1OCc1ccccc1` [Compound 2], the half-maximal inhibitory concentration (IC50) in assay [1] amounted to 6.1 nM. In addition, the “synergism with diazinon (in words)” value in assay [2] is “No synergism was observed”. For the compound `OB(O)c1cc(Br)cc(N2CCOCC2)c1` [Compound 3.1], the IC50 in assay [1] is 1.5 nM. In assay [2] (susceptible laboratory strain), the “reduction of diazinon EC50 compared to a diazinon only control” value came out at 5.7 fold. On to `OB(O)c1cc(Br)cc(N2CCCCC2)c1` [Compound 3.3], for which the IC50 in assay [1] is 0.97 nM. On the same count and under the same terms, then `CN1CCN(c2cc(Br)cc(B(O)O)c2)CC1` [Compound 3.4], with 7.8 nM; and `OB(O)c1cc(Br)cc2c1OCC2` [Compound 3.5], with 7.2 nM. The same measure, in the same setting: for `OB(O)c1cc(Br)c2ccccc2c1F` [Compound 3.6] the value was 13 nM. Still for that read-out and setting: then `CC(C)Oc1cc(Br)cc(B(O)O)c1` [Compound 3.7, 3-Bromo-5-isopropoxyphenylboronic acid], with 0.62 nM; and `OB(O)c1cc(Br)cc(OC(F)(F)F)c1` [Compound 3.8], with 4.2 nM. With `OB(O)c1cc(Br)cc(OCc2ccccc2)c1` [Compound 3.9], the IC50 in assay [1] was 0.91 nM. Also, the “synergism with diazinon (in words)” value in assay [2] is listed as “synergism was observed”. In the case of `OB(O)c1cc(Br)cc(Oc2ccccc2)c1` [Compound 3.10, 3-Bromo-5-phenoxyfenylboronic acid], in assay [1], the IC50 came out at 0.91 nM. In addition, in assay [2] (laboratory strain), the “reduction of malathion EC50 compared to a malathion only control” value came out at 16 fold. Also, in assay [2], the “synergism with diazinon (in words)” value is on record as “synergism was observed”.

As for `O=C(c1cc(Cl)cc(B(O)O)c1)N1CCOCC1` [Compound 3.11], the IC50 in assay [1] stood at 12 nM. On the same count and under the same terms, then `CC(C)(C)Oc1ccc(B(O)O)cc1Br` [Compound 3.12], with 25 nM.

As to `OB(O)c1cc(Br)cc(N2CCCC2)c1` [Compound 3], in assay [1], the IC50 was 0.52 nM. For the same compound, in assay [2], the “synergism with diazinon (in words)” value is listed as “synergism was observed”. As for `OB(O)c1ccc2ccccc2c1` [Compound 4], the IC50 in assay [1] is 15 nM. In the case of `OB(O)c1ccc(OCc2ccccc2F)c(Cl)c1` [Compound 5, 3-Chloro-4(2′-fluorobenzyloxy) phenylboronic acid], the IC50 in assay [1] was 22.4 nM. In assay [2], the “synergism with diazinon (in words)” value is reported as “No synergism was observed”. As to `OB(O)c1ccccc1` [PBA, phenylboronic acid, reference compound], the IC50 in assay [1] was 430 nM.
